In patent US12162840B2, “Herbicidal compositions” (SYNGENTA PARTICIPATIONS AG, priority 2018, dated 2024):

Experiments:
Assay type in all cases: in vivo
[1] = tested on: Amaranthus retoflexus (AMARE); assay: B1 Post-emergence efficacy Test 1; conditions: post-emergence application, 1000 g/ha, evaluated after 13 days
Procedure: (§1) Seeds of a variety of test species are sown in standard soil in pots:—Solanum nigrum (SOLNI), Amaranthus retoflexus (AMARE), Setaria faberi (SETFA), Alopecurus myosuroides (ALOMY), Echinochloa crus-galli (ECHCG), Ipomoea hederacea (IPOHE), Lolium perenne (LOLPE). After 8 days cultivation (post-emergence) under controlled conditions in a glasshouse (at 24/16° C., day/night; 14 hours light; 65% humidity), the plants are sprayed with an aqueous spray solution derived from the formulation of the technical active ingredient in acetone/water (50:50) solution containing 0.5% Tween 20 (polyoxyethylene sorbitan monolaurate, CAS RN 9005-64-5). Compounds are applied at 1000 g/ha. The test plants are then grown in a glasshouse under controlled conditions in a glasshouse (at 24/16° C., day/night; 14 hours light; 65% humidity) and watered twice daily. After 13 days, the test is evaluated for the percentage damage caused to the plant. The biological activities are assessed on a five point scale (5=80-100%; 4=60-79%; 3=40-59%; 2=20-39%; 1=0-19%). A blank value in the table is indicative that the compound was not tested on that species.

[2] = tested on: Echinochloa crus-galli (ECHCG); assay: B1 Post-emergence efficacy Test 1; conditions: post-emergence application, 1000 g/ha, evaluated after 13 days
Procedure: as §1

[3] = tested on: Ipomoea hederacea (IPOHE); assay: B1 Post-emergence efficacy Test 1; conditions: post-emergence application, 1000 g/ha, evaluated after 13 days
Procedure: as §1

Lolium perenne (LOLPE) = assay: B1 Post-emergence efficacy Test 1; conditions: post-emergence application, 1000 g/ha, evaluated after 13 days
Procedure: as §1

Setaria faberi (SETFA) = assay: B1 Post-emergence efficacy Test 1; conditions: post-emergence application, 1000 g/ha, evaluated after 13 days
Procedure: as §1

Solanum nigrum (SOLNI) = assay: B1 Post-emergence efficacy Test 1; conditions: post-emergence application, 1000 g/ha, evaluated after 13 days
Procedure: as §1

[4] = tested on: warm season plant species; assay: B2 Post-emergence efficacy Test 2, warm season plant species; conditions: 15 days after application, 0-100 scale, 0=no damage, 100=total kill; for Herbicidal activity, ABUTH: Abutilon theophrasti; for Herbicidal activity, AMARE: Amaranthus retroflexus; for Herbicidal activity, BIDPI: Bidens pilosa; for Herbicidal activity, BRAPL: Brachiaria plantaginea; for Herbicidal activity, DIGSA: Digitaria sanguinalis; for Herbicidal activity, ECHCG: Echinochloa crus galli; for Herbicidal activity, ELEIN: Eleisine indica; for Herbicidal activity, EPHHL: Euphorbia hetrophylla; for Herbicidal activity, GLXMA: Glycine max; for Herbicidal activity, IPOHE: Ipomoea hederacea; for Herbicidal activity, ORYSA: Orysa sativa; for Herbicidal activity, PANMI: Panicum miliaceum; for Herbicidal activity, SETFA: Setaria faberi; for Herbicidal activity, SIDSP: Sida spinosa; for Herbicidal activity, SORVU: Sorghum bicolour; for Herbicidal activity, XANST: Xanthium strumarium; for Herbicidal activity, ZEAMX: Zea mays
Procedure: Seeds of a variety of test species (see Table B1) were sown in standard soil in pots. After cultivation for 12 days (post-emergence) under controlled conditions in a glasshouse (at 24/18° C. or 20/16° C., at day/night; 16 hours light; 65% humidity), the plants were sprayed with an aqueous spray solution derived from the formulation of the technical active ingredient dissolved in IF50 (see Table B2 for composition) and adjuvant (Genapol XO80) was added to the spray solution at a rate of 0.2% v/v. [table] [table] After application, the test plants were grown in a glasshouse under controlled conditions (as above) and watered twice daily. Herbicidal activity was evaluated 15 days after application on a 0-100 scale. The results, where 0=no damage to test plant and 100=total kill of test plant are shown below in Tables 6 to 9.

## Cc1nn(C)c(=O)c(-c2c(F)ccc(Cl)c2CCc2ccc(C#N)cc2)c1O [Compound 1.024]
[1]
  percentage damage caused to the plant, five point scale, AMARE: 5 (5=80-100%)
[2]
  percentage damage caused to the plant, five point scale, ECHCG: 5 (5=80-100%)
[3]
  percentage damage caused to the plant, five point scale, IPOHE: 5 (5=80-100%)
Lolium perenne (LOLPE)
  percentage damage caused to the plant, five point scale, LOLPE: 5 (5=80-100%)
Setaria faberi (SETFA)
  percentage damage caused to the plant, five point scale, SETFA: 5 (5=80-100%)
Solanum nigrum (SOLNI)
  percentage damage caused to the plant, five point scale, SOLNI: 5 (5=80-100%)
[4]; 15 g/Ha
  Herbicidal activity, ABUTH: 90
  Herbicidal activity, AMARE: 80
  Herbicidal activity, BIDPI: 80
  Herbicidal activity, BRAPL: 30
  Herbicidal activity, DIGSA: 0
  Herbicidal activity, ECHCG: 70
  Herbicidal activity, ELEIN: 0
  Herbicidal activity, EPHHL: 70
  Herbicidal activity, GLXMA: 70
  Herbicidal activity, ORYSA: 0
  Herbicidal activity, PANMI: 0
  Herbicidal activity, SETFA: 20
  Herbicidal activity, SIDSP: 80
  Herbicidal activity, SORVU: 0
  Herbicidal activity, ZEAMX: 0
[4]; 30 g/Ha
  Herbicidal activity, ABUTH: 90
  Herbicidal activity, AMARE: 90
  Herbicidal activity, BIDPI: 80
  Herbicidal activity, BRAPL: 60
  Herbicidal activity, DIGSA: 20
  Herbicidal activity, ECHCG: 80
  Herbicidal activity, ELEIN: 40
  Herbicidal activity, EPHHL: 90
  Herbicidal activity, GLXMA: 80
  Herbicidal activity, IPOHE: 100
  Herbicidal activity, ORYSA: 0
  Herbicidal activity, PANMI: 70
  Herbicidal activity, SETFA: 70
  Herbicidal activity, SIDSP: 90
  Herbicidal activity, SORVU: 10
  Herbicidal activity, ZEAMX: 10
[4]; 60 g/Ha
  Herbicidal activity, ABUTH: 100
  Herbicidal activity, AMARE: 90
  Herbicidal activity, BIDPI: 80
  Herbicidal activity, BRAPL: 70
  Herbicidal activity, DIGSA: 40
  Herbicidal activity, ECHCG: 80
  Herbicidal activity, ELEIN: 40
  Herbicidal activity, EPHHL: 90
  Herbicidal activity, GLXMA: 90
  Herbicidal activity, IPOHE: 100
  Herbicidal activity, ORYSA: 0
  Herbicidal activity, PANMI: 80
  Herbicidal activity, SETFA: 80
  Herbicidal activity, SIDSP: 90
  Herbicidal activity, SORVU: 70
  Herbicidal activity, XANST: 80
  Herbicidal activity, ZEAMX: 20
[4]; 125 g/Ha
  Herbicidal activity, ABUTH: 100
  Herbicidal activity, AMARE: 100
  Herbicidal activity, BIDPI: 80
  Herbicidal activity, BRAPL: 70
  Herbicidal activity, DIGSA: 80
  Herbicidal activity, ECHCG: 90
  Herbicidal activity, ELEIN: 60
  Herbicidal activity, EPHHL: 90
  Herbicidal activity, GLXMA: 90
  Herbicidal activity, IPOHE: 100
  Herbicidal activity, ORYSA: 0
  Herbicidal activity, PANMI: 90
  Herbicidal activity, SETFA: 90
  Herbicidal activity, SIDSP: 100
  Herbicidal activity, SORVU: 80
  Herbicidal activity, XANST: 80
  Herbicidal activity, ZEAMX: 40
[4]; 250 g/Ha
  Herbicidal activity, ABUTH: 100
  Herbicidal activity, AMARE: 100
  Herbicidal activity, BIDPI: 80
  Herbicidal activity, BRAPL: 70
  Herbicidal activity, DIGSA: 90
  Herbicidal activity, ECHCG: 90
  Herbicidal activity, ELEIN: 80
  Herbicidal activity, EPHHL: 100
  Herbicidal activity, GLXMA: 100
  Herbicidal activity, IPOHE: 100
  Herbicidal activity, ORYSA: 20
  Herbicidal activity, PANMI: 90
  Herbicidal activity, SETFA: 90
  Herbicidal activity, SIDSP: 100
  Herbicidal activity, SORVU: 90
  Herbicidal activity, ZEAMX: 70
[4]; 500 g/Ha
  Herbicidal activity, ABUTH: 100
  Herbicidal activity, AMARE: 100
  Herbicidal activity, BIDPI: 90
  Herbicidal activity, BRAPL: 90
  Herbicidal activity, DIGSA: 90
  Herbicidal activity, ECHCG: 100
  Herbicidal activity, ELEIN: 80
  Herbicidal activity, EPHHL: 100
  Herbicidal activity, GLXMA: 100
  Herbicidal activity, IPOHE: 100
  Herbicidal activity, ORYSA: 40
  Herbicidal activity, PANMI: 100
  Herbicidal activity, SETFA: 100
  Herbicidal activity, SIDSP: 100
  Herbicidal activity, SORVU: 100
  Herbicidal activity, XANST: 100
  Herbicidal activity, ZEAMX: 100
